Data: patent EP0025288A1, “Derivatives of monic acid, processes for their preparation, compositions containing them and their preparation” (priority 1979, dated 1981)

Tests used:
Assay type in all cases: cell-based
E coli NCTC 10418 [1] = test: MIC, human bacteria, serial dilution in nutrient agar; conditions: nutrient agar containing 5% 'chocolated' horse blood
E coli ESS = test: as above; conditions: nutrient agar containing 5% 'chocolated' horse blood
P mirabilis 889 = test: as above; conditions: nutrient agar containing 5% 'chocolated' horse blood
K aerogenes A = test: as above; conditions: nutrient agar containing 5% 'chocolated' horse blood
Ps aeruginosa 10662 = test: as above; conditions: nutrient agar containing 5% 'chocolated' horse blood
[2] = tested on: Pasteurella multocida 1633; test: as above; conditions: nutrient agar containing 5% 'chocolated' horse blood
[3] = tested on: Haemophilus influenzae Q1; test: as above; conditions: nutrient agar containing 5% 'chocolated' horse blood
[4] = tested on: Haemophilus influenzae Wy21; test: as above; conditions: nutrient agar containing 5% 'chocolated' horse blood
[5] = tested on: Neisseria flavescens 8263; test: as above; conditions: nutrient agar containing 5% 'chocolated' horse blood
Bacillus subtilis 6633 = test: as above; conditions: nutrient agar containing 5% 'chocolated' horse blood
[6] = tested on: Corynebacterium zerosis 9755; test: as above; conditions: nutrient agar containing 5% 'chocolated' horse blood
Sercina lutea 8340 = test: as above; conditions: nutrient agar containing 5% 'chocolated' horse blood
Staph aureus Oxford [7] = test: as above; conditions: nutrient agar containing 5% 'chocolated' horse blood
Staph aureus Russell = test: as above; conditions: nutrient agar containing 5% 'chocolated' horse blood
Staph aureus W2827 = test: as above; conditions: nutrient agar containing 5% 'chocolated' horse blood
Strep faecalis I = test: as above; conditions: nutrient agar containing 5% 'chocolated' horse blood
Strep pyogenes A 64/848 = test: as above; conditions: nutrient agar containing 5% 'chocolated' horse blood
Strep pyogenes B 2788 = test: as above; conditions: nutrient agar containing 5% 'chocolated' horse blood
Strep pyogenes C 2761 = test: as above; conditions: nutrient agar containing 5% 'chocolated' horse blood
Strep pneumoniae CN33 = test: as above; conditions: nutrient agar containing 5% 'chocolated' horse blood
E coli NCTC 10418 [8] = test: MIC, veterinary bacteria; conditions: veterinary bacteria (Table 2)
E coli E1 = test: MIC, veterinary bacteria; conditions: veterinary bacteria (Table 2)
S dublin S7 = test: MIC, veterinary bacteria; conditions: veterinary bacteria (Table 2)
S typhimurium S18 = test: MIC, veterinary bacteria; conditions: veterinary bacteria (Table 2)
Bord bronchiseptica BO8 = test: MIC, veterinary bacteria; conditions: veterinary bacteria (Table 2)
Bord bronchisptica BO9 = test: MIC, veterinary bacteria; conditions: veterinary bacteria (Table 2)
Past multocida PA1 = test: MIC, veterinary bacteria; conditions: veterinary bacteria (Table 2)
Past multocida PA2 = test: MIC, veterinary bacteria; conditions: veterinary bacteria (Table 2)
Past Haemolytica PA5 = test: MIC, veterinary bacteria; conditions: veterinary bacteria (Table 2)
[9] = tested on: Erysipelothrix rhusiopathiae NCTC 8163; test: MIC, veterinary bacteria; conditions: veterinary bacteria (Table 2)
[10] = tested on: Corynebacterium pyogenes CY1; test: MIC, veterinary bacteria; conditions: veterinary bacteria (Table 2)
[11] = tested on: Staph aureus B4 (pen resis); test: MIC, veterinary bacteria; conditions: veterinary bacteria (Table 2)
[12] = tested on: Staph aureus 152 (pen sens); test: MIC, veterinary bacteria; conditions: veterinary bacteria (Table 2)
Staph aureus Oxford [13] = test: MIC, veterinary bacteria; conditions: veterinary bacteria (Table 2)
[14] = tested on: Strep suis (group D) SPS11; test: MIC, veterinary bacteria; conditions: veterinary bacteria (Table 2)
Strep uberis SPU1 = test: MIC, veterinary bacteria; conditions: veterinary bacteria (Table 2)
Strep dysgalaciae SPD1 = test: MIC, veterinary bacteria; conditions: veterinary bacteria (Table 2)
Strep agalactiae SPA1 = test: MIC, veterinary bacteria; conditions: veterinary bacteria (Table 2)
M suipneumoniae Str 11 = test: MIC, anti-mycoplasmal, Friis' broth microtiter method
[15] = tested on: M suipneumoniae J2206/183b; test: as above
M dispar H225 = test: as above
M dispar NCTC 10125 = test: as above
M pneumoniae 427a [16] = test: as above
M pneumoniae ATCC 15492 [17] = test: as above
M fermentans MWKL4 [18] = test: as above
M pulmonis JB [19] = test: as above
M pneumoniae 427a [20] = test: MIC, anti-mycoplasmal, serial dilution in Friis' agar
M pneumoniae ATCC 15492 [21] = test: as above
M bovis ATCC 25025 = test: as above
M bovis NCTC 10131 = test: as above
M fermentans MWKL4 [22] = test: as above
M pulmonis JB [23] = test: as above
M hyorhinis ATCC 23234 = test: as above
M hyosynoviae ATCC 25591 = test: as above
M arthritidis ATCC 14124 = test: as above
M gallisepticum S6 = test: as above
M synoviae ATCC 25204 = test: as above
M alkalescens NCTC 10135 = test: as above
[24] = tested on: M bovigenitalium ATCC 14173; test: as above

8-Acetvloctyl Monate A [Example 3] showed an MIC (E coli NCTC 10418 [1]) of 100 µm/ml, an MIC (E coli ESS) of 0.5 µm/ml and an MIC (P mirabilis 889) greater than 100 µm/ml. The MIC (K aerogenes A) was greater than 100 µm/ml, the MIC (Ps aeruginosa 10662) was greater than 100 µm/ml and the MIC [2] was 1.0 µm/ml. The MIC [3] was 0.2 µm/ml, the MIC [4] was 0.2 µm/ml and the MIC [5] was 0.1 µm/ml. For the same substance, the MIC (Bacillus subtilis 6633) was 0.2 µm/ml, the MIC [6] was 100 µm/ml and the MIC (Sercina lutea 8340) was greater than 100 µm/ml. The MIC (Staph aureus Oxford [7]) was 0.1 µm/ml, the MIC (Staph aureus Russell) was 9.5 µm/ml and the MIC (Staph aureus W2827) was 100 µm/ml. The MIC (Strep faecalis I) was 100 µm/ml, the MIC (Strep pyogenes A 64/848) was 0.2 µm/ml and the MIC (Strep pyogenes B 2788) was 0.5 µm/ml. For the same substance, the MIC (Strep pyogenes C 2761) was 0.5 µm/ml, the MIC (Strep pneumoniae CN33) was 0.2 µm/ml and the MIC (E coli NCTC 10418 [8]) was greater than 80 µg/mL. It also gave an MIC (E coli E1) greater than 80 µg/mL, an MIC (S dublin S7) greater than 80 µg/mL and an MIC (S typhimurium S18) greater than 80 µg/mL. The MIC (Bord bronchiseptica BO8) was 20 µg/mL, the MIC (Bord bronchisptica BO9) was 5 µg/mL and the MIC (Past multocida PA1) was 2.5 µg/mL. It also gave an MIC (Past multocida PA2) of 0.156 µg/mL, an MIC (Past Haemolytica PA5) of 20 µg/mL and an MIC [9] of 10 µg/mL. The MIC [10] was greater than 80 µg/mL, the MIC [11] was 0.312 µg/mL and the MIC [12] was 0.312 µg/mL. The MIC (Staph aureus Oxford [13]) was 0.312 µg/mL, the MIC [14] was 1.25 µg/mL and the MIC (Strep uberis SPU1) was 0.07 µg/mL. The MIC (Strep dysgalaciae SPD1) was 0.156 µg/mL, the MIC (Strep agalactiae SPA1) was 0.625 µg/mL and the “in vitro MIC, BROTH” value (M suipneumoniae Str 11) was 0.039 µg/mL. The “in vitro MIC, BROTH” value [15] was 0.156 µg/mL, the “in vitro MIC, BROTH” value (M dispar H225) was 0.039 µg/mL and the “in vitro MIC, BROTH” value (M dispar NCTC 10125) was less than 0.02 µg/mL. For the same substance, the “in vitro MIC, BROTH” value (M pneumoniae 427a [16]) was 0.312 µg/mL, the “in vitro MIC, BROTH” value (M pneumoniae ATCC 15492 [17]) was 0.312 µg/mL and the “in vitro MIC, BROTH” value (M fermentans MWKL4 [18]) was less than 0.02 µg/mL. For the same substance, the “in vitro MIC, BROTH” value (M pulmonis JB [19]) was less than 0.02 µg/mL, the “in vitro MIC, AGAR” value (M pneumoniae 427a [20]) was 1.25 µg/mL and the “in vitro MIC, AGAR” value (M pneumoniae ATCC 15492 [21]) was 1.25 µg/mL. The “in vitro MIC, AGAR” value (M bovis ATCC 25025) was 0.039 µg/mL, the “in vitro MIC, AGAR” value (M bovis NCTC 10131) was no more than 0.02 µg/mL and the “in vitro MIC, AGAR” value (M fermentans MWKL4 [22]) was 0.039 µg/mL. For the same substance, the “in vitro MIC, AGAR” value (M pulmonis JB [23]) was 0.039 µg/mL, the “in vitro MIC, AGAR” value (M hyorhinis ATCC 23234) was 0.625 µg/mL and the “in vitro MIC, AGAR” value (M hyosynoviae ATCC 25591) was 0.156 µg/mL. For the same substance, the “in vitro MIC, AGAR” value (M arthritidis ATCC 14124) was 2.5 µg/mL, the “in vitro MIC, AGAR” value (M gallisepticum S6) was 5.0 µg/mL and the “in vitro MIC, AGAR” value (M synoviae ATCC 25204) was less than 0.02 µg/mL. For the same substance, the “in vitro MIC, AGAR” value (M alkalescens NCTC 10135) was 0.039 µg/mL and the “in vitro MIC, AGAR” value [24] was 0.078 µg/mL.
